Measured values taken from PMC5817008 (Analytical biochemistry, 2017).
Like-named read-outs stand apart in the source and are kept apart here.

What was measured:
[1] = tested on: Francisella tularensis subsp. novicida Utah 112; assay: microbe, parasite or virus in culture; assay type: cell-based; details: for EC50: read-out: EC50, growth inhibition
FtIspD [2] = assay type: biochemical, Francisella tularensis
FtIspD [3] = assay type: biochemical, Francisella tularensis; remark: listed apart in the source
Y. pestis IspC (YpIspC) = Y. pestis IspC (YpIspC) (Yersinia pestis, UniProt Q8ZH62); assay: biochemical; details: for % Residual Activity: 100 µM; for remaining activity at 100 µM: read-out: % Residual Activity
[4] = literature search; cited from earlier work
[5] = tested on: Yersinia pestis subsp. A1122; assay: microbe, parasite or virus in culture; assay type: cell-based
[6] = tested on: Francisella tularensis subsp. novicida Utah 112; details: read-out: EC50, growth inhibition; cited from earlier work
[7] = tested on: Yersinia pestis subsp. A1122; details: read-out: EC50, growth inhibition; cited from earlier work
[8] = tested on: F. tularensis IspD (FtIspD); assay type: biochemical, Francisella tularensis
E.coli IspD (EcIspD) = molecular target: T1, E.coli IspD (EcIspD) (Escherichia coli, UniProt Q46893); assay: Secondary screen, cuvette-based assay with EcIspD; assay type: biochemical
T1 sequence (Q46893 1-236): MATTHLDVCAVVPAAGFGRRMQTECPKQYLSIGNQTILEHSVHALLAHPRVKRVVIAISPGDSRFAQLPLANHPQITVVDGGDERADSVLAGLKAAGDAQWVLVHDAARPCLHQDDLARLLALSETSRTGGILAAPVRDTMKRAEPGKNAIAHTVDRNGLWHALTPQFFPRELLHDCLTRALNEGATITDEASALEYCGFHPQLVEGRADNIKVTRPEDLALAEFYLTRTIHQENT

CYP34A = details: direct competitive inhibitor; cited from earlier work
PI3K = details: competitive inhibitor; cited from earlier work
JNK = details: cited from earlier work
YpIspC [9] = molecular target: T2, YpIspC (Yersinia pestis, UniProt Q8ZH62); assay type: biochemical
YpIspC [10] = molecular target: T2, YpIspC; assay type: biochemical; remark: listed apart in the source
[11] = Yersinia pestis, SUBSP.A1122, read-out: EC50, growth inhibition

Sequence of Y. pestis IspC (YpIspC) (Q8ZH62 whole entry, looked up): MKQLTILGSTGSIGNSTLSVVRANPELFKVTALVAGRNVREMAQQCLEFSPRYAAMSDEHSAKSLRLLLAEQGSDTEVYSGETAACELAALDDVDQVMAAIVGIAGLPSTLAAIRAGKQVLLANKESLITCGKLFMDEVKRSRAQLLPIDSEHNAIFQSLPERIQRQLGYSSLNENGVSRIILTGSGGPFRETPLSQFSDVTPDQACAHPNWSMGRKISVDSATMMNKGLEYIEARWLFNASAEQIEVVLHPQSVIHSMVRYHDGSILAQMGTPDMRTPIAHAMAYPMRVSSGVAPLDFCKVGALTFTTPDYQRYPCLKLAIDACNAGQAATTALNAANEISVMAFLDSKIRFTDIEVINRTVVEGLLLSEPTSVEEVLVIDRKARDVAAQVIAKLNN
T2 sequence (Q8ZH62 whole entry, looked up): as above

NC(Cc1cc(O)c(O)cc1O)C(=O)O (racemic) [6-hydroxy-DL-DOPA]
antibacterial activity in the quaternary screen [1]: failed to show significant antimicrobial activity
attenuation of inhibition in the presence of detergent (FtIspD [2]): did not attenuate inhibition
mode of inhibition with respect to CTP (FtIspD [3]): competitive
mode of inhibition with respect to MEP (FtIspD [3]): noncompetitive

O=C(O)C1=CC(=C(c2ccc(O)c(C(=O)O)c2)c2ccc(O)c(C(=O)O)c2)C=CC1=O [Aurintricarboxylic acid]
antibacterial activity in the quaternary screen [1]: failed to show significant antimicrobial activity

O.Oc1cc(O)c2c(c1)O[C@H](c1ccc(O)c(O)c1)[C@@H](O)C2 [Catechin]
% Residual Activity (Y. pestis IspC (YpIspC)): 96.65%

Cc1cc(N)c2ccccc2[n+]1CCCCCCCCCC[n+]1c(C)cc(N)c2ccccc21.O.[Cl-].[Cl-] [Dequalinium chloride, 1,1′-Decamethylenebis(4-aminoquinaldinium) dichloride hydrate]
antibacterial activity in the quaternary screen [1]: significantly inhibit bacterial growth
forming aggregates in solution [4]: forming aggregates in solution
EC50 [5, 11]: > 100 µM
hit identification in the primary screen with YpIspC (Y. pestis IspC (YpIspC)): identified as inhibitors of IspC

CC(=O)N(O)CCCP(=O)(O)O [FR900098]
EC50 [6]: 23 µM
EC50 [7]: 29 µM

O=C1Nc2ccc(I)cc2C1=Cc1cc(Br)c(O)c(Br)c1 [GW5074, 3-(3,5-Dibromo-4-hydroxybenzylidine-5-iodo-1,3-dihydro-indol-2-one)]
antibacterial activity in the quaternary screen [1]: significantly inhibit bacterial growth
hit identification in the primary screen with FtIspD [8]: identified as inhibitors of FtIspD
residual activity of EcIspD in the secondary screen (E.coli IspD (EcIspD); secondary screen, 100 μM): 47%

COc1cc(/C=C(\C#N)C(=O)c2ccc(O)c(O)c2)cc(I)c1O [I-OMe-Tyrphostin AG 538]
antibacterial activity in the quaternary screen [1]: failed to show significant antimicrobial activity

O=C(Nc1cccc(C(=O)Nc2ccc(S(=O)(=O)O)c3cc(S(=O)(=O)O)cc(S(=O)(=O)O)c23)c1)Nc1cccc(C(=O)Nc2ccc(S(=O)(=O)O)c3cc(S(=O)(=O)O)cc(S(=O)(=O)O)c23)c1 [NF023]
antibacterial activity in the quaternary screen [1]: failed to show significant antimicrobial activity

CCCc1c(-c2ccc(O)cc2)nn(-c2ccc(O)cc2)c1-c1ccc(O)cc1 [PPT, 1,3,5-tris(4-hydroxyphenyl)-4-propyl-1H-pyrazole]
antibacterial activity in the quaternary screen [1]: significantly inhibit bacterial growth
hit identification in the primary screen with FtIspD [8]: identified as inhibitors of FtIspD
remaining activity at 100 µM (E.coli IspD (EcIspD); read-out: residual activity of EcIspD in the secondary screen): 55%

O=c1c(O[C@@H]2O[C@H](CO)[C@H](O)[C@H](O)[C@H]2O)c(-c2ccc(O)c(O)c2)oc2cc(O)cc(O)c12 [Quercetin 3-D-Galactoside]
% Residual Activity (Y. pestis IspC (YpIspC)): 76.779%

O=c1c(O[C@@H]2O[C@H](CO)[C@@H](O)[C@H](O)[C@H]2O)c(-c2ccc(O)c(O)c2)oc2cc(O)cc(O)c12 [Quercetin 3-β-D-glucoside]
% Residual Activity (Y. pestis IspC (YpIspC)): 76.25%

O=c1c(O)c(-c2ccc(O)c(O)c2)oc2cc(O)cc(O)c12 [Quercetin]
residual growth [1]: less than 25%
EC50 ([1]; Francisella tularensis): < 50 µM
EC50 [1]: 36 µM
FtIspD activity, % of the uninhibited control [8]: 4%
forming aggregates in solution [4]: forming aggregates in solution
EC50 [5, 11]: < 50 µM
EC50 ([5]; read-out: EC50, growth inhibition): 29 µM
remaining activity at 100 µM (Y. pestis IspC (YpIspC)): 4.83%
inhibition at 100 µM (Y. pestis IspC (YpIspC); read-out: inhibition of the catalytic activity of YpIspC): > 95%
Ki (CYP34A): 15.4 µM
Kd (PI3K): 0.28 µM
IC50 (JNK): 1 µM

C[C@@H]1O[C@@H](Oc2c(-c3ccc(O)c(O)c3)oc3cc(O)cc(O)c3c2=O)[C@H](O)[C@H](O)[C@H]1O [Quercitrin]
remaining activity at 100 µM (Y. pestis IspC (YpIspC)): 78.2%

CC(=O)c1c(O)c(C)c(O)c(Cc2c(O)c3c(c(C(=O)C=Cc4ccccc4)c2O)OC(C)(C)C=C3)c1O [Rottlerin, 3′-[(8-Cinnamoyl-5,7-dihydroxy-2,2-dimethyl-2H-1-benzopyran-6-yl)methyl]-2′,4′,6′-trihydroxy-5′-methylacetophenone]
antibacterial activity in the quaternary screen [1]: significantly inhibit bacterial growth
residual FtIspD activity in the primary screen [8]: 52%
forming aggregates in solution [4]: forming aggregates in solution

C[n+]1cc2c3c(ccc2c2ccc4cc5c(cc4c21)OCO5)OCO3 [Sanguinarine chloride, 13-Methyl-[1, 3]benzodioxolo[5,6-c]-1,3-dioxolo[4,5-i] phenanthridinium chloride]
antibacterial activity in the quaternary screen [1]: significantly inhibit bacterial growth
aggregating / non-aggregating inhibitor (YpIspC [9]): aggregating inhibitor
dependence of IC50 on enzyme concentration (YpIspC [9]): decreases with a decrease in YpIspC concentration

Cc1ccc(C(=O)Nc2ccc(S(=O)(=O)O)c3cc(S(=O)(=O)O)cc(S(=O)(=O)O)c23)cc1NC(=O)c1cccc(NC(=O)Nc2cccc(C(=O)Nc3cc(C(=O)Nc4ccc(S(=O)(=O)O)c5cc(S(=O)(=O)O)cc(S(=O)(=O)O)c45)ccc3C)c2)c1 [Suramin Hexasodium]
antibacterial activity in the quaternary screen [1]: failed to show significant antimicrobial activity
aggregating / non-aggregating inhibitor (YpIspC [9]): non-aggregating
attenuation of inhibition in the presence of detergent (YpIspC [10]): did not attenuate inhibition

C[C@]12C=CC(=O)C=C1CC[C@@H]1C2=CC[C@]2(C)[C@@H](C(=O)CN3CCN(c4cc(N5CCCC5)nc(N5CCCC5)n4)CC3)CC[C@@H]12.O=C(O)/C=C\C(=O)O [U-74389G maleate]
antibacterial activity in the quaternary screen [1]: failed to show significant antimicrobial activity

COc1ccc2c(c[n+](C)c3c4cc5c(cc4ccc23)OCO5)c1OC.[Cl-] [chelerythrine chloride, 1,2-Dimethoxy-N-methyl(1,3) benzodioxolo(5,6-c)phenanthridinium chloride]
antibacterial activity in the quaternary screen [1]: significantly inhibit bacterial growth
EC50 [5, 11]: > 100 µM
hit identification in the primary screen with YpIspC (Y. pestis IspC (YpIspC)): identified as inhibitors of IspC
